Results published in patent publication US10502742B2, “Flourescent exomarker probes for hydrogen sulfide detection” (AMRITA VISHWA VIDYAPEETHAM, priority 2017, dated 2019).

Legend:
[1] = Fluorescence response of Mito-HS to variable concentrations of Na2S (H2S) in PBS
Experimental: UV-Vis and fluorescence spectroscopy was studied and changes of Mito-HS was recorded in variable concentrations of Na2S (0-200 μM) in PBS buffer solution containing 0.2% of DMSO at physiological pH (pH 7.4) to study the performance of the probe in H2S (Na2S) environment as shown in FIG. 3A-C. In FIG. 3A, the UV-Vis absorption band at λab 370 nm gradually decreases with the appearance of a new absorption band at λab 395 nm in the presence of variable concentrations of H2S.

[2] = Time-dependent fluorescence of Mito-HS in the presence of H2S; conditions: H2S (20.0 eq.)
Experimental: The environment of biological entities in cellular milieu is temporal, henceforth, the response time of probe for an analyte is crucial. Thus, time-dependent fluorescence data at λmax 450 nm were recorded in the presence of H2S (20.0 eq.). […] The rate of reaction of Mito-HS with H2S was calculated to be 5.4×10^−3 s^−1.

[3] = Selectivity: fluorescence responses in the presence of biologically important analytes; conditions: Mito-HS 5 μM; PBS, 0.2% DMSO, pH 7.4, 37° C.; excitation 380 nm
Experimental: Fluorescence responses of Mito-HS (5 μM) in the presence of various biologically important analytes such as H2S, cysteine (Cys), H2O2, NaNO2, Cu(OAc)2, Zn(OAc)2, FeSO4, FeCl3, Na2CO3, GSH, and ascorbic acid (AA) NO, Na2S2O4 in aqueous solutions (in PBS, 0.2% DMSO, pH=7.4) at 37° C. were studied as shown in FIG. 5. Excitation wavelength was set at 380 nm and excitation and emission slit widths both set at 3 nm. Error bars were obtained from triplet experimental data. […] So, the experiment supported the proposed concept of using Mito-HS to track cellular H2S over other competing substances such as thiols.

[4] = Physiological pH stability study by fluorescence spectrometry; assay type: physicochemical
Description: The stability and reactivity of Mito-HS toward H2S in various physiological pH was studied in fluorescence spectrometry as shown in FIG. 6.

[5] = Detection of H2S in blood serum by fluorescence spectroscopy; conditions: fetal bovine serum (0.45 mM albumin protein), 37° C.; ex 380 nm, em 450 nm
Experimental: Fluorescence spectroscopy was performed for Mito-HS in fetal bovine serum at 37° C. Excitation and emission wavelengths were set at 380 nm and 450 nm respectively and slit widths at 3 nm.

[6] = system: DU145 cells; assay: In vitro cytotoxicity, MTT assay; assay type: cell-based, Human; conditions: 48 h incubation
Experimental: (§1) Human cervical cancer cells (HeLa), breast cancer cells (MDA-MB-231), prostate cancer cells (DU 145) and 3T3-L1 fibroblast cells were cultured in DMEM high glucose media supplemented with 10% fetal bovine serum, 1% Penstrep, 0.2% Amphotericin B. The cells were grown overnight at 37° C. incubator with 5% CO2. HeLa, MDA-MB-231, DU 145, and 3T3-L1 cells were seeded at a density of 0.3×10^6 cells in 35 mm dish and kept overnight. The probe Mito-HS prepared in Example 1 was dissolved in 0.2% DMSO to make a stock concentration of 10 mM. The cells were treated with 5 μM of Mito-HS for 15 min. 300-550 nm excitation light was used to measure its fluorescence properties. Images were acquired using Zeiss Fluorescence Microscope (A1 Axiovert) with ×40 objective lens.
(§2) Prior to the application of probe in vitro, cytotoxicity study was performed to check its biocompatibility. HeLa, MDA-MB-231 and DU145 cells were considered to assess the cytotoxicity of Mito-HS by conventional MTT assay. The cells were treated with Mito-HS and incubated for 48 h.

[7] = system: HeLa cells; assay: In vitro cytotoxicity, MTT assay; assay type: cell-based, Human; conditions: 48 h incubation
Experimental: as §1, §2

[8] = system: MDA-MB-231 cells; assay: In vitro cytotoxicity, MTT assay; assay type: cell-based, Human; conditions: MDA-MB-231, MTT, 48 h incubation
Experimental: as §1, §2

[9] = Determination of fluorescence quantum yield; assay type: physicochemical; conditions: PBS 10 mM, pH 7.4, quinine standard
Experimental: The fluorescence quantum yield of Mito-HS was determined in the presence and absence of H2S in PBS buffer solution of 10 mM concentration and in the physiological pH of 7.4 taking quinine (ΦX=0.542) as standard. The fluorescence quantum yield was calculated by the equation: ΦS=ΦX (ASFS/AXFX), where, AS and AX are the absorbance of the sample and the reference, respectively; at the same excitation wavelength, FS and FX are the corresponding relative integrated fluorescence intensities. The quantum yield for Mito-HS calculated to be 0.045 was increased to 0.479 due to formation of FL-1 in the presence of H2S.

[10] = system: DU145 cells; assay: Fluorescence microscopy of endogenous H2S in cells; assay type: cell-based, Human
Experimental: as §1
(§3) Fluorescence microscopic study was performed for Mito-HS treated and untreated cancer cells (HeLa, MDA-MB-231 and DU145 cells) and normal cell (3T3-L1 cells) by illuminating lights of 390 nm as excitation wavelength and monitoring the emission over 440-500 nm range. […] In contrast, Mito-HS pretreated normal cells were remained non-fluorescent under similar conditions even after an hour. The insufficient production of H2S in 3T3-L1 cells was responsible for their non-fluorescent images.
(§4) To assure that the fluorescence image of the Mito-HS treated cells were solely due to production of endogenous H2S instead of any other endogenous thiol-like entities such as GSH, cysteine and homocysteine, HeLa, MDA-MB-231 and DU145 cells were pretreated with a thiol-masking agent, here N-ethyl maleimide (NEM).

[11] = system: HeLa cells; assay: Fluorescence microscopy of endogenous H2S in cells; assay type: cell-based, Human
Experimental: as §1, §3, §4

[12] = system: MDA-MB-231 cells; assay: Fluorescence microscopy of endogenous H2S in cells; assay type: cell-based, Human
Experimental: as §1, §3, §4

[13] = system: 3T3-L1 cells; assay: Fluorescence microscopy of endogenous H2S in cells; assay type: cell-based; conditions: 3T3-L1 normal cells, similar conditions, even after an hour
Experimental: as §1, §3

[14] = system: mitochondria of DU145 cells; assay: Co-localization experiment with MitoSox Red; assay type: cell-based, Human
Experimental: (§5) In order to evaluate the mito-targeting nature of Triphenylphosphonium ion of Mito-HS, a co-localization experiment was carried out with MitoSox Red, which is a mitochondria targeting dye, to make a comparison study.

[15] = system: mitochondria of HeLa cells; assay: Co-localization experiment with MitoSox Red; assay type: cell-based, Human
Experimental: as §5

[16] = system: mitochondria of MDA MB 231 cells; assay: Co-localization experiment with MitoSox Red; assay type: cell-based, Human
Experimental: as §5

[17] = reference standard value; cited from earlier work

[N-]=[N+]=Nc1ccc2cc(C(=O)NCC[P+](c3ccccc3)(c3ccccc3)c3ccccc3)c(=O)oc2c1 [Mito-HS]
H2S concentration at fluorescence saturation point ([1]; H2S 0-200 μM added, λmax 450 nm): 200 µM
fluorescence intensity increase in the presence of H2S ([1]; H2S 200 μM, λmax 450 nm, PBS pH 7.4, 0.2% DMSO): ~43 fold
H2S concentration range detectable (physiological condition) ([1]; PBS pH 7.4, 0.2% DMSO): 10-600 μM
lower detection limit for H2S ([1]; calculated by applying regression equation): 24.3 nM
rate of reaction of Mito-HS with H2S ([2]; fluorescence at λmax 450 nm): 0.0054 s⁻¹
time at which fluorescence intensity plateaued ([2]; λmax 450 nm): > 40 min
fluorescence change with analytes other than H2S [3]: none of the analytes showed considerable fluorescence change other than H2S
fluorescence intensity toward H2S at various pH ([4]; in H2S environment, pH 4-9): high fluorescence intensity was observed in H2S environment with sharp depreciation in lower pH range
pH range in which stable ([4]; in absence of H2S, fluorescence spectrometry): 4-9
increase of fluorescence intensity in blood serum [5]: 30 fold
cytotoxicity (cell viability) [6]: did not show cytotoxic behavior
cytotoxicity (cell viability) [7]: did not show cytotoxic behavior
cytotoxicity (cell viability) [8]: did not show cytotoxic behavior
fluorescence quantum yield ([9]; absence of H2S): 0.045
fluorescence quantum yield ([9]; presence of H2S (formation of FL-1)): 0.479
cell fluorescence image ([10]; DU145, Mito-HS 5.0 μM, ex 390 nm, em 440-500 nm): strong fluorescence
cell fluorescence after pretreatment with thiol-masking agent NEM ([10]; DU145, NEM pretreated): equally fluorescent labeled
cell fluorescence image ([11]; Mito-HS 5.0 μM, ex 390 nm, em 440-500 nm): strong fluorescence
cell fluorescence after pretreatment with thiol-masking agent NEM ([11]; NEM pretreated vs NEM untreated): equally fluorescent labeled
cell fluorescence image ([12]; MDA-MB-231, Mito-HS 5.0 μM, ex 390 nm, em 440-500 nm): strong fluorescence
cell fluorescence after pretreatment with thiol-masking agent NEM ([12]; MDA-MB-231, NEM pretreated): equally fluorescent labeled
cell fluorescence image [13]: non-fluorescent
subcellular localization [14]: predominantly in mitochondria
subcellular localization [15]: predominantly in mitochondria
subcellular localization [16]: predominantly in mitochondria

C=C[C@H]1C[N@@]2CC[C@H]1C[C@H]2[C@H](O)c1ccnc2ccc(OC)cc12 [quinine]
fluorescence quantum yield of standard (ΦX) [17]: 0.542
